SMILES strings stand for the structures. Where a name gives a salt, the structure may show the parent alone.

In one assay the test system is Acinetobacter baumannii ATCC17978. Briefly: Antimicrobial susceptibility testing: 90% growth inhibitory concentration (IC90) determination. Type of assay: cell-based. The note with it: ATCC17978, 90% growth inhibitory concentration, Iso-Sensitest broth, optical density at 600 nm over 16h, 35±2° C., read-out: AB ATCC 17978 IC90. The method, then: Antimicrobial Susceptibility Testing:
90% Growth Inhibitory Concentration (IC90) Determination
The in vitro antimicrobial activity of the compounds was determined according to the following procedure:
The assay used a 10-points Iso-Sensitest broth medium to measure quantitatively the in vitro activity of the compounds against Acinetobacter baumannii ATCC17961 or ATCC17978.
Stock compounds in DMSO were serially twofold diluted (e.g. range from 50 to 0.097 μM final concentration) in 384 wells microtiter plates and inoculated with 49 μl the bacterial suspension in Iso-Sensitest medium to have a final cell concentration of ˜5×10^(5) CFU/ml in a final volume/well of 50 ul/well. Microtiter plates were incubated at 35±2° C.
Bacterial cell growth was determined with the measurement of optical density at λ=600 nm each 20 minutes over a time course of 16h. Growth inhibition was calculated during the logarithmic growth of the bacterial cells with determination of the concentration inhibiting 50% (IC50) and 90% (IC90) of the growth.
Table 1 provides the 90% growth inhibitory concentrations (IC90) in micromoles per liter of the compounds of present invention obtained against the strain Acinetobacter baumannii ATCC17978.
With `COc1ccc(-c2cnc3c(Nc4ccc(S(C)(=O)=O)cc4)nccn23)cc1` [Example 52, 3-(4-Methoxyphenyl)-N-(4-(methylsulfonyl)phenyl)imidazo[1,2-a]pyrazin-8-amine], the IC90 amounted to 0.98 µM. The same measure, in the same setting: the figure for `CC(=O)Nc1ccc(Nc2nccn3c(-c4ccc(OC(F)F)c(Cl)c4)cnc23)cc1` [Example 41, N-(4-((3-(3-chloro-4-(difluoromethoxy)phenyl)imidazo[1,2-a]pyrazin-8-yl)amino)phenyl)acetamide] is 0.52 µM. Still for that read-out and setting: then `C#CCOc1ccc(-c2cnc3c(Nc4ccc(NC(C)=O)cc4)nccn23)cc1` [Example 65, N-(4-((3-(4-(prop-2-yn-1-yloxy)phenyl)imidazo[1,2-a]pyrazin-8-yl)amino)phenyl)acetamide], with 0.75 µM; and `COc1ccc(-c2cnc3c(Nc4ccc(NC(C)=O)c(CO)c4)nccn23)cc1` [Example 50, N-(2-(hydroxymethyl)-4-((3-(4-methoxyphenyl)imidazo[1,2-a]pyrazin-8-yl)amino)phenyl)acetamide], with 0.63 µM; and `COCC(=O)Nc1ccc(Nc2nccn3c(-c4ccc(OC)cc4)cnc23)cc1` [Example 19, 2-Methoxy-N-{4-[3-(4-methoxy-phenyl)-imidazo[1,2-a]pyrazin-8-ylamino]-phenyl}-acetamide], with 0.77 µM. For the compound `Cc1cc(Nc2nccn3c(-c4ccc(Cl)cc4)cnc23)ccc1N1CCCC1=O` [Example 60, 1-(4-((3-(4-chlorophenyl)imidazo[1,2-a]pyrazin-8-yl)amino)-2-methylphenyl)pyrrolidin-2-one], the IC90 is 0.76 µM. Still for that read-out and setting: the figure for `CC(=O)Nc1ccc(Nc2nccn3c(-c4ccc(F)c(F)c4)cnc23)cc1C` [Example 85, N-(4-((3-(3,4-difluorophenyl)imidazo[1,2-a]pyrazin-8-yl)amino)-2-methylphenyl) acetamide] is 0.34 µM.

On to `CC(=O)Nc1ccc(Nc2nccn3c(-c4ccc(F)cc4)cnc23)cc1C` [Example 53, N-(4-((3-(4-fluorophenyl)imidazo[1,2-a]pyrazin-8-yl)amino)-2-methylphenyl)acetamide], for which the IC90 is 0.36 µM.

Take `COc1ccc(-c2cnc3c(Nc4ccc(NC(C)=O)c(C)c4)nccn23)cc1F` [Example 47, N-(4-((3-(3-fluoro-4-methoxyphenyl)imidazo[1,2-a]pyrazin-8-yl)amino)-2-methylphenyl)acetamide]: the IC90 was found to be 0.13 µM. Same read-out and setting: the figure for `COc1ccc(-c2cnc3c(Nc4ccc(N5CCCC5=O)c(C)c4)nccn23)cc1` [Example 58, 1-(4-((3-(4-methoxyphenyl)imidazo[1,2-a]pyrazin-8-yl)amino)-2-methylphenyl)pyrrolidin-2-one] is 0.26 µM; for `CCc1cc(Nc2nccn3c(-c4ccc(OC)cc4)cnc23)ccc1NC(C)=O` [Example 38, N-(2-ethyl-4-((3-(4-methoxyphenyl)imidazo[1,2-a]pyrazin-8-yl)amino)phenyl)acetamide] it is 0.2 µM; for `COc1ccc(-c2cnc3c(Nc4ccc(CO)c(C)c4)nccn23)cc1` [Example 120] it is 0.74 µM. Take `COc1ccc(-c2cnc3c(Nc4ccc(NC(=O)CCl)cc4)nccn23)cc1` [Example 51, 2-chloro-N-(4-((3-(4-methoxyphenyl)imidazo[1,2-a]pyrazin-8-yl)amino)phenyl)acetamide]: the IC90 came out at 0.75 µM. Turning to `COc1ccc(-c2cnc3c(Nc4ccc(S(=O)(=O)N(C)C)cc4)nccn23)cc1` [Example 77, 4-((3-(4-methoxyphenyl)imidazo[1,2-a]pyrazin-8-yl)amino)-N,N-dimethylbenzenesulfonamide], the IC90 amounted to 0.63 µM. Still for that read-out and setting: then `COc1ccc(-c2cnc3c(Nc4ccc(N5CCCC5=O)cc4)nccn23)cc1Cl` [Example 9, 1-[4-[[3-(3-chloro-4-methoxy-phenyl)imidazo [1,2-a]pyrazin-8-yl]amino]phenyl] pyrrolidin-2-one; 2,2,2-trifluoroacetic acid], with 0.34 µM.

As to `COc1ccc(-c2cnc3c(Nc4ccc(N5CCCCC5=O)cc4)nccn23)cc1Cl` [Example 44, 1-(4-((3-(3-Chloro-4-methoxyphenyl)imidazo[1,2-a]pyrazin-8-yl)amino)phenyl)piperidin-2-one], the IC90 is 0.26 µM. Still for that read-out and setting: the figure for `CC(=O)Nc1ccc(Nc2nccn3c(-c4ccc(Cl)c(F)c4)cnc23)cc1C` [Example 84, N-(4-((3-(4-chloro-3-fluorophenyl)imidazo[1,2-a]pyrazin-8-yl)amino)-2-methylphenyl)] is 0.17 µM; for `CCN1CCN(CC(=O)Nc2ccc(Nc3nccn4c(-c5ccc(OC(F)F)cc5)cnc34)cc2C)CC1` [Example 55, N-(4-((3-(4-(difluoromethoxy)phenyl)imidazo[1,2-a]pyrazin-8-yl)amino)-2-methylphenyl)-2-(4-ethylpiperazin-1-yl)acetamide] it is 0.28 µM. Still for that read-out and setting: the figure for `COc1ccc(-c2cnc3c(Nc4ccc(S(=O)(=O)N5CCN(C)CC5)cc4)nccn23)cc1` [Example 79, 3-(4-methoxyphenyl)-N-(4-((4-methylpiperazin-1 - yl)sulfonyl)phenyl) imidazo[1,2-a]pyrazin-8-amine] is 0.85 µM; for `COc1ccc(-c2cnc3c(Nc4ccc(NC(C)=O)c(C)c4)nccn23)c(Cl)c1` [Example 86, N-(4-((3-(2-chloro-4-methoxyphenyl)imidazo [1,2-a]pyrazin-8-yl)amino)-2-methylphenyl)acetamide] it is 0.26 µM. Take `COc1ccc(-c2cnc3c(Nc4ccc(NC(=O)CO)cc4)nccn23)cc1Cl` [Example 10, N-[4-[[3-(3-chloro-4-methoxy-phenyl)imidazo [1,2-a]pyrazin-8-yl]amino]phenyl]-2-hydroxy-acetamide; 2,2,2-trifluoroacetic acid]: the IC90 was 0.82 µM. On to `O=C1OCCN1c1ccc(Nc2nccn3c(-c4ccc(OC(F)F)cc4)cnc23)cc1` [Example 2, 3-[4-[[3-[4-(difluoromethoxy)phenyl]imidazo[1,2-a]pyrazin-8-yl]amino]phenyl]oxazolidin-2-one], for which the IC90 is 0.25 µM. Turning to `COc1ccc(-c2cnc3c(Nc4ccc(NC(=O)CN5CCOCC5)cc4)nccn23)cc1Cl` [Example 36, N-(4-((3-(3-chloro-4-methoxyphenyl)imidazo[1,2-a]pyrazin-8-yl)amino)phenyl)-2-morpholinoacetamide], the IC90 came out at 0.84 µM. On to `CC(=O)Nc1ccc(Nc2nccn3c(-c4ccc(F)cc4F)cnc23)cc1C` [Example 83, N-(4-((3-(2,4-difluorophenyl)imidazo[1,2-a]pyrazin-8-yl)amino)-2-methylphenyl)acetamide], for which the IC90 worked out at 0.7 µM. Still for that read-out and setting: the figure for `COc1ccc(-c2cnc3c(Nc4ccc(Cn5ccnc5)cc4)nccn23)cc1` [Example 117, N-[4-(imidazol-1-ylmethyl)phenyl]-3-(4-methoxyphenyl)imidazo[1,2-a]pyrazin-8-amine] is 0.54 µM.

The same assay, now with this note: ATCC17978, 16 h, read-out: AB ATCC 17978 IC90 (uM).
As to `COc1ccc(-c2cnc3c(Nc4ccc(N(C)C(C)=O)cc4)nccn23)cc1Cl` [Example 7], the IC90 was found to be 0.86 µM. As to `CCc1cc(Nc2nccn3c(-c4ccc(OC)c(F)c4F)cnc23)ccc1NC(=O)CCN` [Example 93, 3-amino-N-(4-((3-(2,3-difluoro-4-methoxyphenyl)imidazo[1,2-a]pyrazin-8-yl)amino)-2-ethylphenyl)propanamide hydrochloride], the IC90 amounted to 0.18 µM.

What is called IC90 is the concentration needed for an effect of 90%.

The values are drawn from patent publication US20230141403A1 (Hoffmann-La Roche Inc., priority 2020, published 2023).
